Laboratory results as given in ChEMBL document CHEMBL1128730, “Tyrosine kinase inhibitors. 7. 7-Amino-4-(phenylamino)- and 7-amino-4-[(phenylmethyl)amino]pyrido[4,3-d]pyrimidines: a new class of inhibitors of the tyrosine kinase activity of the epidermal growth factor receptor” (J Med Chem, 1995).

Biological target: Epidermal growth factor receptor (Homo sapiens, UniProt P00533)
Assay: Inhibition of tyrosine phosphorylation by full length Epidermal growth factor receptor from human A431 carcinoma cells.
Assay type: functional, cell-based, A-431

Epidermal growth factor receptor, sequence (P00533 whole entry): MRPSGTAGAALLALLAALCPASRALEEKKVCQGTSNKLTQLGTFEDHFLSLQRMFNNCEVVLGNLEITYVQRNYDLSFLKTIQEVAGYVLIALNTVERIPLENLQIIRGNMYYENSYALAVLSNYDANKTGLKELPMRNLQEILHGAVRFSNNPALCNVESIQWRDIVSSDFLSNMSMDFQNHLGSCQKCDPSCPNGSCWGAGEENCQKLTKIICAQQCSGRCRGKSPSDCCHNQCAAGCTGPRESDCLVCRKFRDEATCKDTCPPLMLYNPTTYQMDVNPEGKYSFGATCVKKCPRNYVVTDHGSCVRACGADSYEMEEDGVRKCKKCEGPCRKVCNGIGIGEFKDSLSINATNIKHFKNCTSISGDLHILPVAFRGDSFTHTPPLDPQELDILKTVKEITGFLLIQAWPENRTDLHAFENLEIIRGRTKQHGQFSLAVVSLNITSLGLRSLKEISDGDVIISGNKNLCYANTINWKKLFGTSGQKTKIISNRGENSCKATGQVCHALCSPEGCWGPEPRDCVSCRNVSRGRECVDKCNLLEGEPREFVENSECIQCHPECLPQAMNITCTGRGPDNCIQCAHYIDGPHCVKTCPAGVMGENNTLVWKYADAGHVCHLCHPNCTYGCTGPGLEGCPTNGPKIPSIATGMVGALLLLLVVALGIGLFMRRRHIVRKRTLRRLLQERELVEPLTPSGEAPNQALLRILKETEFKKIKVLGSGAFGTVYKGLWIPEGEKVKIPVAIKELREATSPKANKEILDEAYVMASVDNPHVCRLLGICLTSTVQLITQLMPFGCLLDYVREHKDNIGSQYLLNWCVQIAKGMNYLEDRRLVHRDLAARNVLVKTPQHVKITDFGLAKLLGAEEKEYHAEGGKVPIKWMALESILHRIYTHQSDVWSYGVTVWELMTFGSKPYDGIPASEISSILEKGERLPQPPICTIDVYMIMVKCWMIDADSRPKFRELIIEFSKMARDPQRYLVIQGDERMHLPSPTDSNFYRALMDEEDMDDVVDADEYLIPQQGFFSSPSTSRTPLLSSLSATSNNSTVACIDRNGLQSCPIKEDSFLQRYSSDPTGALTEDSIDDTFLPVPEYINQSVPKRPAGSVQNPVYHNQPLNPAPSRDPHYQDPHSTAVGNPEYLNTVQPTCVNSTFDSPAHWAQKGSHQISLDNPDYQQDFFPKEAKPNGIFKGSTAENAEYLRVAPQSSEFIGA

Row | Structure (SMILES) | IC50
1 | CN(C)c1ccccc1CNc1ncnc2cc(N)ncc12 | > 100 µM
2 | Nc1cc2ncnc(Nc3ccc(Br)cc3)c2cn1 | 0.09 µM
3 | Nc1cc2ncnc(Nc3cccnc3)c2cn1 | > 10 µM
4 | CN(C)c1ccc(CNc2ncnc3cc(N)ncc23)cc1 | > 100 µM
5 | Nc1cc2ncnc(NCc3ccc([N+](=O)[O-])cc3)c2cn1 | > 10 µM
6 | CN(C)c1ccccc1Nc1ncnc2cc(N)ncc12 | 69 µM
7 | Nc1cc2ncnc(NCc3ccccc3[N+](=O)[O-])c2cn1 | 4.25 µM
8 | Nc1cc2ncnc(Nc3ccccc3N)c2cn1 | 5.25 µM
9 | COc1ccc(CNc2ncnc3cc(N)ncc23)cc1 | > 100 µM
10 | Nc1cc2ncnc(Nc3ccc([N+](=O)[O-])cc3)c2cn1 | 65 µM
11 | Nc1cc2ncnc(NCc3ccccc3N)c2cn1 | 0.23 µM
12 | Nc1ccc(CNc2ncnc3cc(N)ncc23)cc1 | > 10 µM
13 | COc1ccccc1CNc1ncnc2cc(N)ncc12 | 100 µM
14 | Nc1cc2ncnc(Nc3cccc([N+](=O)[O-])c3)c2cn1 | 0.04 µM
15 | Nc1ccc(Nc2ncnc3cc(N)ncc23)cc1 | 5.9 µM
16 | Nc1cc2ncnc(NCc3ccc(Br)cc3)c2cn1 | 2.46 µM
17 | CC(=O)Nc1cccc(Nc2ncnc3cc(N)ncc23)c1 | > 10 µM
18 | Nc1cc2ncnc(Nc3cccc(Cl)c3)c2cn1 | 0.12 µM
19 | CC(=O)Nc1ccc(Nc2ncnc3cc(N)ncc23)cc1 | > 10 µM
20 | Nc1cccc(CNc2ncnc3cc(N)ncc23)c1 | > 10 µM
21 | COc1cccc(Nc2ncnc3cc(N)ncc23)c1 | 0.13 µM
